Values joined by “and” are separate entries in the source; they are usually repeats but may differ in a detail not shown here. Equal entries are not always repeated.
Experiments:
[1] = target: T1, MAL^TIR (Homo sapiens, UniProt P58753); experiment: T‐Surf phage library (P8 and P3) selection against MAL^TIR, four rounds, NGS read counts; assay type: binding; settings: for P3_MAL Rank (after) / P3_MAL Rank (before): P3 library; for Population: 4th round of selection against MAL TIR, share of NGS reads
T1 construct: MAL (residues 79–221); 6xHis; made in house; host or cells: E. coli BL21 (DE3)
T1 sequence (P58753 79-221): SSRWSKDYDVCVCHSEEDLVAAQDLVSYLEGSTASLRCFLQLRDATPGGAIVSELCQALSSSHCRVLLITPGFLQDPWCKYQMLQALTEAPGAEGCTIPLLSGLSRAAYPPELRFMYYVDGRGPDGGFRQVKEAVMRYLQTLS
Outline: (§1)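 Coat TIR domain 5 µg mL^−1 overnight; block 0.2% BSA/PBS 1 h, 4 °C; add phage library 1 h, RT; wash ×4 PBS/0.5% Tween‐20; elute 100 mM HCl, neutralize Tris; amplify in TG1, PEG‐precipitate. Repeat to round 4; barcode PCR, NovaSeq, count reads.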

[2] = target: T2, MyD88^TIR (Homo sapiens, UniProt Q99836); experiment: T‐Surf phage library (P8 and P3) selection against MyD88^TIR, four rounds, NGS read counts; assay type: binding; settings: for P3_MyD88 Rank (after) / P3_MyD88 Rank (before): P3 library; for Population: 4th round of selection against MyD88 TIR, share of NGS reads
T2 construct: MyD88 (residues 148–296); 6xHis; made in house; host or cells: E. coli BL21 (DE3)
T2 sequence (Q99836 148-296): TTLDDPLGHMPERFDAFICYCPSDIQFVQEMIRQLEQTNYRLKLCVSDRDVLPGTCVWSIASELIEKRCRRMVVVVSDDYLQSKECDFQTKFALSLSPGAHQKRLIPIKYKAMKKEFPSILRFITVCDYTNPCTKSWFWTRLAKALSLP
Outline: as §1

[3] = 4R selection against MAL, rank after grouping
[4] = 4R selection against MAL, rank before grouping
[5] = selection against MyD88 TIR, rank by count after grouping
[6] = selection against MyD88 TIR, rank by count before grouping
[7] = P3_MAL pool: P3 T-Surf phage library
[8] = P3_MAL: rank by count after grouping
[9] = P3_MAL: rank by count before grouping
[10] = P3_MyD88 pool: P3 T-Surf phage library
[11] = P3_MyD88: rank by count after grouping
[12] = P3_MyD88: rank by count before grouping
[13] = selection against MAL TIR, rank by count after grouping
[14] = selection against MAL TIR, rank by count before grouping
[15] = selection against MyD88, rank after grouping
[16] = selection against MyD88, rank before grouping

YTLLAICMMRCIVIV
P3_MAL Rank (after) ([1]; selection against MAL, rank by count after grouping): 751 | P3_MAL Rank (before) ([1]; selection against MAL, rank by count before grouping): 1535 | P3_MyD88 Rank (after) ([2]; selection against MyD88, rank by count after grouping): 682 | P3_MyD88 Rank (before) ([2]; selection against MyD88, rank by count before grouping): 1622

KEVEGWRDALTKWRA
P3_MAL Rank (after) [1, 3]: 652 | P3_MAL Rank (before) [1, 4]: 3567 | P3_MyD88 Rank (after) [2, 5]: 250 | P3_MyD88 Rank (before) [2, 6]: 1304

NQWRNALTAAANLS
Population [1, 7]: 0.0162% | Rank (after) [1, 8]: 102 | Rank (before) [1, 9]: 105 | Population [2, 10]: 0.00553%

NGHESEIIKEIWIPL
Rank (after) [1, 8]: 429 | Rank (before) [1, 9]: 3263 | Rank (after) [2, 11]: 407 | Rank (before) [2, 12]: 3358

SSFREGLWRLLVLSKK
Population [1, 7]: 0.00338% | Population [2, 10]: 0.00437%

YAFTGHLQRYLVHRGV
P3_MAL Rank (after) [1, 13]: 251 | P3_MAL Rank (before) [1, 14]: 1443 | Rank (after) [2, 11]: 120 | Rank (before) [2, 12]: 1532

LQNQWKLALTKVANLSGW
Rank (after) [1, 8]: 116 | Rank (before) [1, 9]: 213 | Rank (after) [2, 11]: 98 | Rank (before) [2, 12]: 680

LKWGDPYFWSKLRFA
Rank (after) [1, 8]: 474 | Rank (before) [1, 9]: 2222 | P3_MyD88 Rank (after) [2, 5]: 207 | P3_MyD88 Rank (before) [2, 6]: 1061

LKWAIRIFGANCVMR
P3_MAL Rank (after) [1, 13]: 274 | P3_MAL Rank (before) [1, 14]: 844 | Rank (after) [2, 11]: 154 | Rank (before) [2, 12]: 1073

RLLKWKEALHQFHSW
Rank (after) [1, 8]: 136 | Rank (before) [1, 9]: 436 | Rank (after) [2, 11]: 130 | Rank (before) [2, 12]: 708

NQWRNALYEAANLS
P3_MAL Rank (after) [1, 13]: 198 | P3_MAL Rank (before) [1, 14]: 1055 | Rank (after) [2, 11]: 184 | Rank (before) [2, 12]: 1269

SSFREGLWRLLELSKLRYAM
P3_MAL Rank (after) ([1]; selection against MAL, rank after grouping): 558 | P3_MAL Rank (before) ([1]; selection against MAL, rank before grouping): 3151 | P3_MyD88 Rank (after) [2, 15]: 517 | P3_MyD88 Rank (before) [2, 16]: 3173

YLKWKEALHQFHSWV
P3_MAL Rank (after) [1, 3]: 662 | P3_MAL Rank (before) [1, 4]: 1520 | P3_MyD88 Rank (after) ([2]; 4R selection against MyD88, rank after grouping): 601 | P3_MyD88 Rank (before) ([2]; 4R selection against MyD88, rank before grouping): 1609

ARLPAICIVIWCSVA
Rank (after) [1, 8]: 106 | Rank (before) [1, 9]: 170 | Rank (after) [2, 11]: 140 | Rank (before) [2, 12]: 935

AFLYTFLINLTHPTNF
P3_MAL Rank (after) [1, 3]: 588 | P3_MAL Rank (before) [1, 4]: 1798 | Population ([1]; P8_MAL pool: P8 T-Surf phage library): 0.00463% and 0.00432% and 0.00402% and 0.00371% and 0.0034% and 0.00309% and 0.00278% | P3_MyD88 Rank (after) [2, 15]: 537 | P3_MyD88 Rank (before) [2, 16]: 1881

EWIREGLWRLLELSKK
Rank (after) [1, 8]: 135 | Rank (before) [1, 9]: 411 | Rank (after) [2, 11]: 96 | Rank (before) [2, 12]: 361

LKVESWRDALTKVASL
Rank (after) [1, 8]: 142 | Rank (before) [1, 9]: 847 | Population [2, 10]: 0.0032%

LKWGDPYFGANCVMR
Rank (after) [1, 8]: 143 | Rank (before) [1, 9]: 415 | P3_MyD88 Rank (after) [2, 5]: 269 | P3_MyD88 Rank (before) [2, 6]: 1069

YLKWGDPYFWSKLRYAM
Rank (after) [1, 8]: 159 | Rank (before) [1, 9]: 519 | Population [2, 10]: 0.00466%

YAFTGHLHRYLVQREPAGN
Rank (after) [1, 8]: 413 | Rank (before) [1, 9]: 1402 | P3_MyD88 Rank (after) [2, 5]: 196 | P3_MyD88 Rank (before) [2, 6]: 1511

YAFTGHLHRYLVQHGV
Population [1, 7]: 0.0109% | Population [2, 10]: 0.00378%

RGFLSHLRHHLQAKDH
Rank (after) ([1]; P8_MAL: rank by count after grouping): 107 | Rank (before) ([1]; P8_MAL: rank by count before grouping): 654 | Rank (after) ([2]; P8_MyD88: rank by NGS read count after grouping): 907 | Rank (before) ([2]; P8_MyD88: rank by NGS read count before grouping): 3395

DIQRSRFKDDADLVGQ
Rank (after) [1, 8]: 130 | Rank (before) [1, 9]: 1958 | Rank (after) [2, 11]: 391 | Rank (before) [2, 12]: 2068

WKNALANIAEILGFEL
P8_MAL Rank (after) ([1]; P8 library, selection against MAL TIR, rank by count after grouping): 287 | P8_MAL Rank (before) ([1]; P8 library, selection against MAL TIR, rank by count before grouping): 1431 | Rank (after) ([2]; P8_MyD88: rank by count after grouping): 162 | Rank (before) ([2]; P8_MyD88: rank by count before grouping): 180 | Population ([2]; P8_MyD88 pool: P8 T-Surf phage library): 0.00732%

WFWDKLIYALSRNPH
P3_MAL Rank (after) [1, 13]: 278 | P3_MAL Rank (before) [1, 14]: 712 | Rank (after) [2, 11]: 155 | Rank (before) [2, 12]: 549

From PMC11714206, “Massively Parallel Screening of Toll/Interleukin‐1 Receptor (TIR)‐Derived Peptides Reveals Multiple Toll‐Like Receptors (TLRs)‐Targeting Immunomodulatory Peptides” (Advanced Science, 2024)
